Data reported in patent US6165770A, “Alkaline stable amylase from Thermoalcalibacter” (Novo Nordisk A/S, priority 1996, dated 2000).
Where a name gives a salt, the structure may show the parent alone.

Target: T1, α-amylase from Thermoalcalibacter bogoriae (Anaerobranca gottschalkii, UniProt Q5I942)
T1 sequence (Q5I942 24-532): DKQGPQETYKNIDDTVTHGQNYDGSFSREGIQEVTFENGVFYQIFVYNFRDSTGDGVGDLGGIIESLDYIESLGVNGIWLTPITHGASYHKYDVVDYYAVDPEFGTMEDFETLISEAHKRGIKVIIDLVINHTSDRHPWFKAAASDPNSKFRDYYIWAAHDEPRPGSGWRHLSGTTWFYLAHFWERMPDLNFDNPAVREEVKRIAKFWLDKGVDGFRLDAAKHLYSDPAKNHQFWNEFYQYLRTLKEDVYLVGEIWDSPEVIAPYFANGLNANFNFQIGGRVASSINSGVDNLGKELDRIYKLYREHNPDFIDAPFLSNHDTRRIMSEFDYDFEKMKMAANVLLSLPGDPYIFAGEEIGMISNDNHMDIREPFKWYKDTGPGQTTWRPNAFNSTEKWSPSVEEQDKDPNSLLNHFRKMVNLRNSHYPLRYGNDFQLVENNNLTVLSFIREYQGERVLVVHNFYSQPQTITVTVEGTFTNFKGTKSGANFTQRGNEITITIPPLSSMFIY
Experiment: Effect of metal ions and chemical reagents on amylase activity
Assay type: biochemical
Conditions: pH 8
Protocol: The effect of metal ions on the activity of the amylase of the present invention was examined by pre-incubating the enzyme together with metal ions for 30 min. at 65° C., pH 8.0 in a substrate solution containing (wt/vol) soluble starch (0.5%). Subsequently an enzyme assay was performed at 65° C. for 30 min in order to determine the residual activity of the amylase. For further details see working example herein (vide infra) and FIG. 4.
The amylase activity was measured at pH 8.0 -higher pH would interfere with metal ion solutions- and 65° C. in presence of various metal ions at 1 mM, 2 mM and 5 mM concentration and in presence of some chemical reagents (FIG. 4).

| SMILES | effect of metal ions on amylase activity |
| --- | --- |
| O=C(O)CN(CCN(CC(=O)O)CC(=O)O)CC(=O)O [EDTA] | not or only slightly inhibited |

Same assay, conditions: pH 8.0, 65° C., 1 mM, 2 mM and 5 mM

| SMILES | effect of metal ions on amylase activity |
| --- | --- |
| [Ca+2] [Ca^2+] | not or only slightly inhibited |
| [Co+2] [Co^2+] | not or only slightly inhibited |
| [Cr+6] [Cr^6+] | Strong inhibition |
| [Cu+2] [Cu^2+] | Strong inhibition |
| [Fe+2] [Fe^2+] | Strong inhibition |
| [Mg+2] [Mg^2+] | Moderate inhibition |
| [Mn+2] [Mn^2+] | moderate stimulation |
| [Ni+2] [Ni^2+] | Moderate inhibition |
| [V+4] [V^4+] | Strong inhibition |
| [Zn+2] [Zn^2+] | Moderate inhibition |

Same assay, conditions: pH 8.0, 65° C., 5 mM

| SMILES | effect of chemical reagents on amylase activity at 5 mM |
| --- | --- |
| OC(CS)C(O)CS (stereo not drawn) [DTT] | totally inhibited |
| N=C(N)N [Guanidine-HCl] | stimulatory effect |
| NCCc1ccc(S(=O)(=O)F)cc1 [Pefabloc SC] | did not interfer |
| CCCCCCCCCCCCOS(=O)(=O)O [SDS] | totally inhibited |
